Data on 1 molecule can be found in patent publication US20240197685A1, “SELECTIVE ANGIOTENSIN II RECEPTOR LIGANDS” (priority 2021, published 2024).

Like-named read-outs stand apart in the source and are kept apart here.

Series [1] can be described thus: Metabolic stability in pooled human liver microsomes. Type of series: in vitro ADME. The following applies: human, pooled human liver microsomes, human liver microsomes 0.5 mg/mL, test compound 1 μM, 37° C. Background: Liver microsomes are a subcellular fraction often used to study metabolism.
Another series concerns the target T1, CYP2C8 (Homo sapiens, UniProt P10632).
T1 construct: tissue Eurofins protocol ITEMG232; host or cells: human liver microsomes
T1 sequence (P10632 1-490): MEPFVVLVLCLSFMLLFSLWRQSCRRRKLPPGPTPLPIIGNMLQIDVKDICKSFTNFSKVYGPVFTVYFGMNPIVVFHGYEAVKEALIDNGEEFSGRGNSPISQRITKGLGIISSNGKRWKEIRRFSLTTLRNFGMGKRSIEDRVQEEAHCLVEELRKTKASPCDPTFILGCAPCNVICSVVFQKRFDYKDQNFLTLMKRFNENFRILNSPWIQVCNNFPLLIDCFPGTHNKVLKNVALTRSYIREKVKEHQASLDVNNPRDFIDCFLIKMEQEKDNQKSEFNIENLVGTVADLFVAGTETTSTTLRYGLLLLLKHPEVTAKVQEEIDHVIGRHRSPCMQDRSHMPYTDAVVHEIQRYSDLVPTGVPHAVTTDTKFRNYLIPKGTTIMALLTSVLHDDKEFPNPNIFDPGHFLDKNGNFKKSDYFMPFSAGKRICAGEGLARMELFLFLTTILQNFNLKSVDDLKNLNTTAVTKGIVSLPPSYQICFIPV
Nature of the series: CYP inhibition, human liver microsomes. Type of series: in vitro ADME. Particulars: probe paclitaxel and amodiaquine, substrates paclitaxel and amodiaquine, read-out: CYP2C8 Inh %.

The next series deals with T2, CYP2C9 (Homo sapiens, UniProt P11712).
T2 construct: tissue Eurofins protocol ITEMG232; host or cells: human liver microsomes
Nature of the series: CYP inhibition, human liver microsomes. Type of series: in vitro ADME. Particulars: probe diclofenac; 10 μM, substrate diclofenac, human liver microsomes; read-out: CYP2C9 Inh %.

Another series has as its system CYP3A4&5. Nature of the series: CYP inhibition, human liver microsomes. Type of series: in vitro ADME. Particulars: probe testosterone, substrate testosterone, read-out: CYP3A4&5 testosterone Inh %.
Series [2] concerns the target T3, human recombinant AT2 receptor (Homo sapiens, UniProt P50052).
T3 construct: Eurofins protocol ITEM26
T3 sequence (P50052 1-363): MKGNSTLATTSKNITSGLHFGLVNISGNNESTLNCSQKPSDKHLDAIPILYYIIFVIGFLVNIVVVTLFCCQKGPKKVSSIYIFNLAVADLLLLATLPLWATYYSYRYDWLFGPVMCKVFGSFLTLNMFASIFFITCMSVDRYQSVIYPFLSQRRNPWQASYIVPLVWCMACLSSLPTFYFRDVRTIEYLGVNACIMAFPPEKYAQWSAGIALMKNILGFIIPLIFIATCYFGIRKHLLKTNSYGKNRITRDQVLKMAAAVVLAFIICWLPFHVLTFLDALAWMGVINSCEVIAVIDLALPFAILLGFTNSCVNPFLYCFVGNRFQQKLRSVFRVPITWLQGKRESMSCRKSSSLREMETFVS
Nature of the series: Binding to AT2 receptor, radiometric scintillation assay (Eurofins). Particulars: single run; 1, 10, 100 and 1000 nM; ligand 125I CGP 42112A; read-out: AT2 GraFit IC50.

The next series concerns the target T4, CYP3A4 (Homo sapiens, UniProt P08684).
T4 construct: tissue Eurofins protocol ITEMG232; host or cells: human liver microsomes
As to the kind of experiment: CYP inhibition, human liver microsomes. The format is in vitro ADME. Particulars: probe midazolam; 10 μM, substrate midazolam, human liver microsomes; read-out: CYP3A4 midazolam Inh %.

The next series concerns the target T5, CYP2C19 (Homo sapiens, UniProt P33261).
T5 construct: tissue Eurofins protocol ITEMG232; host or cells: human liver microsomes
Nature of the series: CYP inhibition, human liver microsomes. The following applies: probe omeprazole, substrate omeprazole, read-out: CYP2C19 Inh %. Type of series: in vitro ADME.

Another series concerns the target T6, CYP1A (Homo sapiens, UniProt P05177).
T6 construct: tissue Eurofins protocol ITEMG232; host or cells: human liver microsomes
T6 sequence (P05177 2-516 limits assumed): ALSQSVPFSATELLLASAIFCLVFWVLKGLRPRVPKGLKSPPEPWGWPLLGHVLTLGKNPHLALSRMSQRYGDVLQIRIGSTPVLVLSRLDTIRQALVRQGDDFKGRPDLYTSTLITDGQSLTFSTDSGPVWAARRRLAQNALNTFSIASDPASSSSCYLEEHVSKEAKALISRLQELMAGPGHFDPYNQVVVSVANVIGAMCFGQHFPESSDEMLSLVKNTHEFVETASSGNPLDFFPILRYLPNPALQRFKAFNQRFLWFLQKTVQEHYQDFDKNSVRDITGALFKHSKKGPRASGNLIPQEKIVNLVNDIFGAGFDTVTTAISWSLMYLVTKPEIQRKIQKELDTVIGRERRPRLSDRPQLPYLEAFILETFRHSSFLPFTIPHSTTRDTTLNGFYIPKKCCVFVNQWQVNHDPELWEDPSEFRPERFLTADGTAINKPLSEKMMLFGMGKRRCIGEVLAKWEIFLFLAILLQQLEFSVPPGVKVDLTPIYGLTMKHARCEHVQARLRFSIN
As to the kind of experiment: CYP inhibition, human liver microsomes. The format is in vitro ADME. Particulars: probe phenacetin, substrate phenacetin, read-out: CYP1A Inh %.

A further series addresses T7, CYP2B6 (Homo sapiens, UniProt P20813).
T7 construct: tissue Eurofins protocol ITEMG232; host or cells: human liver microsomes
T7 sequence (P20813 1-491): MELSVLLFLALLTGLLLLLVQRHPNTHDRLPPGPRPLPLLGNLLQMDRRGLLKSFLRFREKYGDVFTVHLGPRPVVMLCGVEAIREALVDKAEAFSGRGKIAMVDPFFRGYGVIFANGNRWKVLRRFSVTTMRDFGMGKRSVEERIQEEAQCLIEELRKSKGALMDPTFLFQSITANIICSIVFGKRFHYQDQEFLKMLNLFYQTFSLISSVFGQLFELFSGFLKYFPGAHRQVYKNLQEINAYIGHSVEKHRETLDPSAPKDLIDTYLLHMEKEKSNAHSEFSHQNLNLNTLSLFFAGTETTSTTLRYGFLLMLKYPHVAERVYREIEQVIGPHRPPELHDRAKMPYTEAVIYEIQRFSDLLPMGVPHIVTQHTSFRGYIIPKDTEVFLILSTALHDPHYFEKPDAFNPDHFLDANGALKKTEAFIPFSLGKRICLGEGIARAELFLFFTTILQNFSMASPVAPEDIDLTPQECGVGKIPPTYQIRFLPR
Nature of the series: CYP inhibition, human liver microsomes. The format is in vitro ADME. Particulars: probe bupropion, substrate bupropion, read-out: CYP2B6 Inh %.

The next series concerns the target T8, CYP2D6 (Homo sapiens, UniProt P10635).
T8 construct: tissue Eurofins protocol ITEMG232; host or cells: human liver microsomes
Nature of the series: CYP inhibition, human liver microsomes. The format is in vitro ADME. The following applies: probe dextromethorphan, substrate dextromethorphan, read-out: CYP2D6 Inh %.

The target in series [3] is T9, human recombinant AT1 receptor (Homo sapiens, UniProt P30556).
T9 construct: Eurofins protocol ITEM24
T9 sequence (P30556 1-359): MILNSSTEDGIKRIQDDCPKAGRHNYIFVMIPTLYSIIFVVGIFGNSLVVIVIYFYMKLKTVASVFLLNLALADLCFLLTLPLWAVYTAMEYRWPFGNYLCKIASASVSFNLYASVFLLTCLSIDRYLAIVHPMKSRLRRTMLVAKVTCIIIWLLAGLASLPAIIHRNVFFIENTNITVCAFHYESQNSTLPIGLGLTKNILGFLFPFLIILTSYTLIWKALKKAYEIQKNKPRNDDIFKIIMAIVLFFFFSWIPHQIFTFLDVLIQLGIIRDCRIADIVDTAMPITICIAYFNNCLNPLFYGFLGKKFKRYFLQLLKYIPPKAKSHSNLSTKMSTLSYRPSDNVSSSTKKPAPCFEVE
Nature of the series: Binding to AT1 receptor, radiometric scintillation assay (Eurofins). The following applies: single run; 1 and 10 μM; ligand 125I(sar1,Ile8)-AT-II.

T5 sequence (P33261 whole entry): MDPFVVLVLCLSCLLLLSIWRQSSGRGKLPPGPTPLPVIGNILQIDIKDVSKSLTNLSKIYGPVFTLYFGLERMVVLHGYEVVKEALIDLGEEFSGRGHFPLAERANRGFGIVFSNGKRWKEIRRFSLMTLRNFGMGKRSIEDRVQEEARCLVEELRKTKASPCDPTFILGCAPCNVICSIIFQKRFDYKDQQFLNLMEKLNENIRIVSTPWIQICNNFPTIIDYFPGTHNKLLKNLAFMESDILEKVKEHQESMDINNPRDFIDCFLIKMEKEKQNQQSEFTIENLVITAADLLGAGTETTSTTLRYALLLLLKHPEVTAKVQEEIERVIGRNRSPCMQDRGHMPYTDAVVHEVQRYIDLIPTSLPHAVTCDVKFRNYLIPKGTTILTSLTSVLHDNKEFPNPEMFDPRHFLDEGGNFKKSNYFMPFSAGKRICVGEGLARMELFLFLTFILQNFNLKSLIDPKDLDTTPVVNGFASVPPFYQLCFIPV
T4 sequence (P08684 whole entry): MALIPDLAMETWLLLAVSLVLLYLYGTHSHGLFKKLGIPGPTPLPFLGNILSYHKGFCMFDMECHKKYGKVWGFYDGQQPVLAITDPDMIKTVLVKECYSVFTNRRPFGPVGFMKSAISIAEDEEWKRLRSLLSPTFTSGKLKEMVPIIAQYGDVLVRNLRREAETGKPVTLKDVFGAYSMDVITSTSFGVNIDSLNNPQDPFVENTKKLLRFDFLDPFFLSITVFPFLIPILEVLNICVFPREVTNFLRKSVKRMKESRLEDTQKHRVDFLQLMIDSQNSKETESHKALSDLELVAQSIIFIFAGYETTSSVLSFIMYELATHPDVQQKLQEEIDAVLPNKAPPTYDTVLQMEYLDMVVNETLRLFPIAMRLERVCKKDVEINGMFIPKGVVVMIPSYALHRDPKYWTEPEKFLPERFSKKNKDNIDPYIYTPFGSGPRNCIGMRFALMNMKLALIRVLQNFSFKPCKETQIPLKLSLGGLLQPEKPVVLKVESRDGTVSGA
T8 sequence (P10635 whole entry): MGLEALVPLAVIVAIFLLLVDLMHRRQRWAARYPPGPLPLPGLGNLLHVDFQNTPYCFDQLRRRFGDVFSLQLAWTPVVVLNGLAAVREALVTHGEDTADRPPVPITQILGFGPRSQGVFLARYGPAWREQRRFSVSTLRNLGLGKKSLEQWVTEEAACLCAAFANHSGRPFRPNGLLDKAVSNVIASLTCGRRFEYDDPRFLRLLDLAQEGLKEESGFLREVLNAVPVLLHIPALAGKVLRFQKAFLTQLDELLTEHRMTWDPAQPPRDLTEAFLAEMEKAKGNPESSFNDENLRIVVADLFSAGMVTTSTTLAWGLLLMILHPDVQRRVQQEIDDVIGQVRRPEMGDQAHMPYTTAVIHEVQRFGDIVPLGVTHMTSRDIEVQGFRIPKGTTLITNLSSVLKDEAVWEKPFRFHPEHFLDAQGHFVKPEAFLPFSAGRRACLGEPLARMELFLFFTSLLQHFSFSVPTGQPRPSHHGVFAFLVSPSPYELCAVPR
T2 sequence (P11712 whole entry): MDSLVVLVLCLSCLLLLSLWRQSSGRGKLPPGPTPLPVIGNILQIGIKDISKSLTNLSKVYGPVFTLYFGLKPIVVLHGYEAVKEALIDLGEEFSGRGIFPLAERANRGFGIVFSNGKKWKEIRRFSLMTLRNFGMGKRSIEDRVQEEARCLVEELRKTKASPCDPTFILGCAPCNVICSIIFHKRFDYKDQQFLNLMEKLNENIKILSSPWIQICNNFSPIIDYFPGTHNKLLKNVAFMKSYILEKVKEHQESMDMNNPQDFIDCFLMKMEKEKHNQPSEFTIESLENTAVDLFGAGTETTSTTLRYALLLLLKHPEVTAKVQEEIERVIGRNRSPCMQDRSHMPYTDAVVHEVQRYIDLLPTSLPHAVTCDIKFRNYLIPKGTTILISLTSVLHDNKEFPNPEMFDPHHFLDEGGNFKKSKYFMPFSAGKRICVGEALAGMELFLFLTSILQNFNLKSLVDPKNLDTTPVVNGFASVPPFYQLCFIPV

Broadly, the IC50 is the midpoint of a concentration-inhibition curve. As to `CC(C)Cc1cc(-c2ccc(Cn3ccnc3C(C)(C)C)c(F)c2)c(S(=O)(=O)NC(=O)NCc2cccs2)s1` [Example 7, 1-[[3-[4-[(2-Tert-butylimidazol-1-yl)methyl]-3-fluoro-phenyl]-5-isobutyl-2-thienyl]sulfonyl]-3-(2-thienylmethyl)urea], the half-life at 1 μM in series [1] (with 1 mM NADPH, read-out: T1/2, + NaDPH) was 23 min; in series [1] (without NADPH, read-out: T1/2, no NaDPH) it was above 60 min. For the same molecule, the inhibition at 10 µM is 79.9% at CYP2C8; 76.3% on CYP2C9; 16.7% in the series on CYP3A4&5; 52.3% at CYP3A4; 49.1% at CYP2C19; 20.7% on CYP1A. The inhibition at 10 µM on CYP2B6 came out at 50.5%; at CYP2D6, 13.8%. For the same molecule, the IC50 in [2] is 5 nM; in series [3], 3100 nM.
